Experimental data as given in patent US8895753B2, “S1P receptor modulating agent” (Meiji Seika Pharma Co., Ltd., priority 2011, dated 2014).

Experiments:
enterobacterium = assay: Stability against enterobacterium (feces / cecum homogenates); assay type: in vitro ADME; conditions: cynomolgus monkey feces and rat cecum homogenates, 3 and 30 μM, 37° C., 24 hours; all conditions
Procedure: A culture medium was added to fresh feces of a cynomolgus monkey and rat cecum to prepare homogenates. To a homogenate was added the compound of the Example 2, or 1-{4-[5-(4-isopropoxyphenyl)-1,2,4-oxadiazol-3-yl]benzyl}azetidine-3-carboxylic acid (the compound of the Example 29 of Non-Patent Document 5) adjusted at a concentration of 3 and 30 μM, and the mixture was anaerobically cultured at 37° C. for 24 hours. After the cultivation, the concentration of the residual compound in the culture medium was measured on LC-MS.

electrocardiogram = assay: Evaluation of electrocardiogram in a rat (under anesthesia); assay type: in vivo
Procedure: Under anesthesia, femoral artery was cannulated in a 7-11-week-old male SD rat (Charles River Laboratories Japan Inc.) that had been reared for more than one week, connected to a polygraph (NIHON KODEN) via a pressure transducer. Without consciousness, a vehicle (dimethylsulfoxide) or a test compound was intravenously administered. After the administration, blood pressure, the heart rate, and electrocardiogram were monitored for about 10 minutes.

blood lymphocytic cells = assay: Suppressive effect on circulating lymphocytic cells in a rat; assay type: in vivo; conditions: 6 hours after administration
Procedure: Under anesthesia, a femoral artery was cannulated in a 7-11-week old male SD rat (Charles River Laboratories Japan Inc.) that had been reared for more than one week. A vehicle (in case of intravascular administration, 10% PEG300-0.01 M KOH saline was used, and in case of oral administration, 0.5% hydroxymethyl cellulose solution was used) or a test compound was administered intravascularly or by gavage administration. Right before the administration or 2, 4, 6 hours after the administration, the number of blood lymphocytic cells was counted by using an automated hematology analyzer XT-1800i or XT-2000i (Sysmex). The count of lymphocytic cells right before the administration was regarded as 100%, and the dose of the test compound that reduced blood lymphocytic cells by 50% of vehicle-treated group at the point of 6 hours after the administration was calculated as ED50 (mg/kg body weight).

[1] = test system: electrocardiogram / monophasic action potential (MAP); assay: Evaluation of cardiovascular system in a guinea pig; assay type: in vivo; conditions: anesthetized guinea pig, 0.1 mg/kg body weight, infusion
Text: Under anesthesia with 0.5 to 1% of halothane, to a male Hartley guinea-pig (Japan SLC, Inc.) that had been reared for more than one week, a catheter for administration of a drug solution was placed into the left jugular vein, a monophasic action potential (MAP) measurement/pacing catheter was placed into the endothelial lining of the right ventricle, a catheter for measuring blood pressure was placed into the left carotid artery, and the measurement of body surface electrocardiogram (lead II) was conducted. The drug solution was infused for 10 minutes and the measurement was carried out over 60 minutes. Also, 5, 10, 15, 20, 30, 45 and 60 minutes after the administration of the drug solution, pacing was performed (200, 240, 300 bpm), and monophasic action potential (MAP) was measured.

heart rate = assay: Evaluation of the heart rate in a rat (under consciousness); assay type: in vivo; conditions: vascular administration
Procedure: Under anesthesia, femoral artery was cannulated in a 7-11-week old male SD rat (Charles River Laboratories Japan Inc.) that had been reared for more than one week. Arterial cannula was connected to a pressure transducer, and under consciousness changes in the heart rate were monitored with a polygraph (Nihon Kohden) up to 4 hours after the vascular administration of the vehicle (10% PEG300-0.01M KOH saline) or the test compounds. The dose that lowered the heart rate by 20% was computed as TD20 (mg/kg body weight).

[2] = anesthetized rat, intravenous 0.1 mg/kg body weight

`CC(C)Oc1ccc(-c2nc(-c3ccc(CN4CC(C(=O)O)C4)cc3)no2)cc1` [1-{4-[5-(4-isopropoxyphenyl)-1,2,4-oxadiazol-3-yl]benzyl}azetidine-3-carboxylic acid] was tested, and the “residual compound after anaerobic culture with homogenate” value (enterobacterium) was at most 2%, the “cardiac arrest (cases)” value (electrocardiogram; [2]) was 1 out of 3 and the “duration of continuous cardiac arrhythmia (AV block)” value (electrocardiogram; [2]) was 170 s.
For `CCCCCCCCc1ccc(CCC(N)(CO)CO)cc1` [Fingolimod, reference compound], the “ED50, dose reducing blood lymphocytic cells by 50%” value (blood lymphocytic cells; gavage administration) was 0.2 mg/kg body weight, the “ED50, dose reducing blood lymphocytic cells by 50%” value (blood lymphocytic cells; vascular administration) was 0.06 mg/kg body weight and the MAP90 prolongation effect [1] was “recognized”. For the same compound, the “prolonged QT” value [1] was “recognized”, the “TD20, dose that lowered the heart rate by 20%” value (heart rate; conscious rat) was 0.3 mg/kg body weight and the TD20/ED50 ratio (heart rate; rat) was 5.
In the case of `CCCCCCCCc1ccc(CCC(N)(CO)COP(=O)(O)O)cc1` (stereo not shown) [phosphorylated form of Fingolimod], the “duration of continuous cardiac arrhythmia (AV block)” value (electrocardiogram; rat, in vivo, iv, 0.1 mg/kg) is reported as 120 s.
